Measured values: patent US7307071B2, “RAF-MEK-ERK pathway inhibitors to treat cancer” (Onyx Pharmaceuticals, Inc, priority 2001, dated 2007)

Columns and labels:
[1] = tested on: all four cell lines: Ba/F3, P210 WT, P210 T315I, P210 E255K; assay: Cell proliferation (cell viability) by trypan blue dye exclusion; format: cell-based, mouse; conditions: FIG. 4, 3 experiments, read-out: IC50 for inhibition of cell proliferation
Method: Briefly, cell culture methods were as follows. […] Cell proliferation assays were performed as follows.

[2] = tested on: phospho-ERK in Ba/F3 cells expressing Bcr-Abl imatinib resistant mutants E255K and T315I; assay: ERK phosphorylation, Western blot with phospho-ERK antibody; format: cell-based, mouse; conditions: FIG. 5
Method: (§1) The experiment was conducted as follows. On day 1, 2×10^6 cells were plated in a 6 well plate in medium containing 10% serum, and on day 2 the cells were treated with the relevant compound dissolved in DMSO. The final DMSO concentration was 0.2%. Next, the cells were spun down, and washed once with 2 ml of ice-cold phosphate buffered saline, and then lysed with […] buffer. Next, 50 ul of cell lysates was electrophoresed in 10% Tris-Glycine gels, followed by treatment with a 1° antibody which was a phospho-ERK polyclonal rabbit antibody used at 1:1000 dilution. It was obtained from Cell Signaling. The 1° was followed by a 2° antibody which was goat anti-rabbit horse radish peroxidase antibody, and it was used at a dilution of 1:1000. Lastly, Westerns were developed with an ECL kit obtained from Amersham.

[3] = tested on: phospho-ERK in Ba/F3 cells expressing wild type Bcr-Abl; assay: as above; format: cell-based, mouse; conditions: FIG. 5
Method: as §1

[4] = tested on: chronic myelogenous leukemia; conditions: CML patients, remissions achieved during blast phase; cited from earlier work

## CNC(=O)c1cc(Oc2ccc(NC(=O)Nc3ccc(Cl)c(C(F)(F)F)c3)cc2)ccn1 [BAY 43-9006]
[1]
  IC50: 4 to 8 µM
[2]
  effect on phospho-ERK levels: decrease in phospho-ERK levels
[3]
  effect on phospho-ERK levels: decrease in phospho-ERK levels

## Cc1ccc(NC(=O)c2ccc(CN3CCN(C)CC3)cc2)cc1Nc1nccc(-c2cccnc2)n1 [imatinib]
[4]
  time to relapse after remission: 2-6 months
